Test results published in article PMC10634346 (Cancer Research Communications, 2023).

Key:
SU-DHL-10 = assay: CellTiter-Glo cell viability, SU-DHL-10; type: cell-based; details: Homo sapiens, SU-DHL10
Description: Human DLBCL cell lines SU-DHL-4 (#ACC 495) and SU-DHL-10 (#ACC 576) were obtained from DSMZ (German Collection of Microorganisms and Cell Cultures). The supplier used PCR-based DNA profiling of polymorphic short tandem repeats for authentication and Mycoplasma testing prior to shipment. Cells were cultured in suspension at 37°C in a humidified atmosphere containing 5% CO2. CDK9 inhibitors KB-0742 (MedChemExpress, #HY-137478A), enitociclib, and atuveciclib ([…] Pharma, Inc.) were used. A subset of 35 lymphoma cell lines is from a 500-cell line panel where the effect of enitociclib on cell viability using CellTiter-Glo luminescent cell viability was determined (OmniScreen, CrownBioscience). Genetic status and gene expression level for MYC and MCL1 was obtained from CrownBioscience.

MCL1 mRNA in whole blood = MCL1 mRNA in whole blood of patients (RNA-seq, PK/PD modeling); type: in vivo, human; details: for Downregulation of MCL1 mRNA: C1D15
Description: Total RNA was extracted from blood of patients and cell lines using RNeasy Plus Mini Kit (QIAGEN, #74136) and cDNA prepared with the Maxima First Strand cDNA Synthesis Kit for RT-PCR (Thermo Fisher Scientific, K1642) according to manufacturer's instructions. The integrity of purified total RNA was evaluated using an Agilent 2100 Bioanalyzer system and RNA 6000 Nano Kit (Agilent, #5067-1511). Differential gene expression analysis was performed (Fios Genomics) from RNA-seq data (Discovery Life Sciences). MYC and MCL1 mRNA levels were measured by qPCR in vitro and in vivo, using a Taqman qPCR system (Thermo Fisher Scientific), TaqMan Fast Universal PCR Master Mix (2X) no AmpErase (#4352042) and TaqMan probes for MYC (Hs00153408_m1) and MCL1 (Hs03043899_m1). RNA-seq data were analyzed using DESeq2 ([35]).
Fifteen patients with refractory or relapsed DH-DLBCL or other MYC+ NHL were treated with enitociclib (30 mg, 21-day cycle, once weekly x3) as a 30-minute intravenous infusion on study days 1, 8, and 15 (NCT02635672). Longitudinal gene expression levels were analyzed by RNA-seq, and enitociclib plasma concentrations were measured using LC/MS-MS. The clinical study protocol was approved by the Institutional Review Board of participating institutions and complied with the Declaration of Helsinki, current Good Clinical Practice guidelines, and local laws and regulations. Written informed consent was provided by all participants prior to the initiation of any study-specific procedure.
All pharmacokinetic parameters were calculated by noncompartmental methods as described previously ([36]) using WinNonlin v5.3 (Certara LP). Pharmacokinetic/pharmacodynamic modeling was performed using SAAM II v2.3.2 (The Epsilon Group). Pooled pharmacokinetic data from all patients [n = 15 for single dose, cycle 1 day 1 (C1D1) and n = 11 for multiple doses, cycle 1 day 15 (C1D15)] were characterized using a one-compartment model with intravenous dosing. Subsequently, the pharmacokinetic/pharmacodynamic relationship of enitociclib plasma concentrations to MCL1 and MYC mRNA change was characterized using an indirect response model ([37]) on pooled biomarker data where enitociclib concentrations inhibit the formation of MCL1 or MYC mRNA as described by the following equation: […]
PD is defined as MCL1 or MYC mRNA expression level as a percentage from baseline, t (h) is the time, kin (1/h) is the formation rate of MCL1 or MYC, IC50 (µg/L) is the enitociclib concentration where there is 50% inhibition of PD, kout (h^−1) is the rate constant describing the loss of PD, and n is the hill coefficient. At homeostasis, kin = kout (PD); therefore, kout was replaced by kin/(PD)initial where (PD)initial is equal to 100%. Estimates of pharmacokinetic and pharmacodynamic parameters from pharmacokinetic/pharmacodynamic modeling of pooled data are presented as the estimate followed by CV in parentheses.
RNA-seq data generated from the analysis of two cell lines treated with the three CDK9 inhibitors was analyzed to investigate the differences in gene expression levels between various posttreatment timepoints and the pretreatment samples. Quality control assessment and exploratory data analysis by principal component analysis (PCA) were done on raw counts and on normalized count data. Normalization of RNA-seq count data was done using trimmed mean of M-values normalization and transformed with voom, resulting in log2 counts per million with associated precision weights. […] Significance values (Padj) were adjusted for multiple testing, by controlling the FDR using the Benjamini–Hochberg procedure. […] RNA-seq data generated from blood samples taken from patients before and after their first dose (C1D1) or after multiple doses, before and after their third dose (C1D15) were analyzed and normalized using the same pipeline as cell lines for comparisons.

[1] = tested on: MYC mRNA in SU-DHL-10 cells; assay: In vitro washout, MYC mRNA qPCR, SU-DHL-10; type: cell-based, human; details: 4 h treatment then washout, for 16 to 48 hours after treatment
Description: (§1) Evaluation of the pharmacodynamic extent and duration of CDK9 inhibition were performed in vitro using the human DLBCL cell lines SU-DHL-4 and SU-DHL-10, harboring MYC amplification and MYC overexpression with P57T mutation, respectively. Cells were seeded 18 hours prior to treatment for 4 hours with one of three CDK9 inhibitors, enitociclib (0.25 and1 µmol/L), atuveciclib (1 µmol/L) or KB-0742 (1 µmol/L), cells were washed, and incubation continued until 48 hours posttreatment. Samples were collected before treatment (−4), immediately after treatment (0), and at 1, 2, 4, 8, 12, 16, 24, and 48 hours after washout for RNA sequencing (RNA-seq), qPCR, and Western blotting analyses. Total RNA was extracted from blood of patients and cell lines using RNeasy Plus Mini Kit (QIAGEN, #74136) and cDNA prepared with the Maxima First Strand cDNA Synthesis Kit for RT-PCR (Thermo Fisher Scientific, K1642) according to manufacturer's instructions. The integrity of purified total RNA was evaluated using an Agilent 2100 Bioanalyzer system and RNA 6000 Nano Kit (Agilent, #5067-1511). Differential gene expression analysis was performed (Fios Genomics) from RNA-seq data (Discovery Life Sciences). MYC and MCL1 mRNA levels were measured by qPCR in vitro and in vivo, using a Taqman qPCR system (Thermo Fisher Scientific), TaqMan Fast Universal PCR Master Mix (2X) no AmpErase (#4352042) and TaqMan probes for MYC (Hs00153408_m1) and MCL1 (Hs03043899_m1). RNA-seq data were analyzed using DESeq2 ([35]).

[2] = tested on: MYC and MCL1 mRNA in SU-DHL-4 cells; assay: In vitro washout, MYC and MCL1 mRNA qPCR, SU-DHL-4; type: cell-based, human; details: 1 µmol/L, 4 h treatment then washout
Description: as §1, with “Differential gene expression analysis was performed (Fios Genomics) from RNA-seq data (Discovery Life Sciences).” left out

IC50 (SU-DHL-10): 74 nM | IC50 (MCL1 mRNA in whole blood; Homo sapiens, PK/PD indirect response model, pooled patient blood data, read-out: model estimated unbound IC50 for MCL1 mRNA): 61.2 to 69.1 nM
SMILES: COc1cc(F)ccc1-c1cc(Nc2cc(CS(C)(=N)=O)ccn2)ncc1F (stereo not shown) [enitociclib]
maximal downregulation of MCL1 mRNA level in blood of patients postdose (MCL1 mRNA in whole blood; 30 mg dose): 55.5% | maximal extent of MCL1 mRNA downregulation (MCL1 mRNA in whole blood; C1D1, 30 mg, other MYC+ NHL, range 22.5%–48.2%): 44.54% | time of maximal MCL1 mRNA inhibition (MCL1 mRNA in whole blood; C1D1, 30 mg, patient with the transformed follicular lymphoma): 8 hours postdose | maximal extent of MCL1 mRNA downregulation (MCL1 mRNA in whole blood; C1D1, 30 mg, patients with DH-DLBCL, range 31%–52.4%): 49.28% | Downregulation of MCL1 mRNA (MCL1 mRNA in whole blood; DH-DLBCL, range 30%–55.5%): 45.81% | Downregulation of MCL1 mRNA (MCL1 mRNA in whole blood; other MYC+ NHL, range 0%–43.1%): 18.27% | inhibition of MYC mRNA levels [1]: approximately 75% | MYC and MCL1 mRNA levels over the 48-hour time course (in words) [2]: durable depletion
